18 molecules from patent US7754866B2 (Arena Pharmaceuticals, Inc., priority 1997, dated 2010) can be followed below.

Residue numbers refer to the chain shown, from its start. Read-outs that look alike come from different tables or passages of the source.

For orientation: IC50 means the point on the concentration scale where inhibition reaches its midpoint. The melting point is the temperature, or range, at which the solid turns liquid.

For data set [1], the target named is T1, mutated human 5HT2C receptor (AP-1) (Homo sapiens, UniProt P28335, S310K).
T1 construct: expressed in transfected cells; host or cells: COS7 cells, pCMV vector, transient
T1 sequence (P28335 33-458 S310K): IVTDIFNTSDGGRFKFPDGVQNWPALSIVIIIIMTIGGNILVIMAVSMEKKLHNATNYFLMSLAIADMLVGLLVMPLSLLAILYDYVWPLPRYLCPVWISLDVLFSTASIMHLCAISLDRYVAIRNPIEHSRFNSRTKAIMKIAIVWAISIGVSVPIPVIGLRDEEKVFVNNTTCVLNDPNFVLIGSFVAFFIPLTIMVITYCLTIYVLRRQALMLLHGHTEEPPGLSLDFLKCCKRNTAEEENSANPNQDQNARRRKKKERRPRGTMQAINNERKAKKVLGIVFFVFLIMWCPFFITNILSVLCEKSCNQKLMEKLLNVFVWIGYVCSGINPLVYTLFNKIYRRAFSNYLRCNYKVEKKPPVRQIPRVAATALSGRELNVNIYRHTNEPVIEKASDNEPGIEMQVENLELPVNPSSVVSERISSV
The data set can be described thus: Competitive binding assay, [3H]mesulergine, AP-1. The note with it: Competitive Binding AP-1 ([3H]mesulergine) IC50 Value (μM), 1 nM [3H]mesulergine, COS7 membranes.

Data set [2] deals with T2, wild type human 5HT2A receptor (Homo sapiens, UniProt P28223).
T2 construct: expressed in transfected cells; host or cells: COS-7 cells, pCMV vector
Kind of data set: Competitive binding assay, [3H]LSD, WT 5HT2A.

The target in data set [3] is T3, human mutated 5HT2A receptor, AP-3 (Homo sapiens, UniProt P28223, T25N).
T3 construct: Inositol Phosphate Accumulation AP-3 IC50 Value (nM); other: several concentrations; IP3 % of Control; other: one concentration of 10 μM, triplicate; control without test compound
The data set can be described thus: Inositol phosphate accumulation assay, AP-3.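 Further: transfected 293 cells prelabeled with 3H-inositol, exposed to compound 120 min at 37 °C with LiCl and pargyline, inositol trisphosphates isolated by anion exchange and counted by scintillation.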 The class given is cell-based.

The target of data set [4] is T4, 5HT2A receptors (fourth layer of the cerebral cortex) (Rattus norvegicus, UniProt P14842).
T4 construct: from tissue; host or cells: horizontal sections of Sprague-Dawley rat brain, cerebral cortex
Kind of data set: I125-LSD displacement from rat brain sections, cerebral cortex. The class given is binding, Sprague-Dawley rats. The note with it: 1 micromolar compound, 1 nanomolar I125-LSD, autoradiography.

Data set [5] has as its system dopamine D2 receptors (caudate nucleus). Kind of data set: I125-LSD displacement from rat brain sections, caudate nucleus. The class given is binding, Sprague-Dawley rats. The note with it: 1 micromolar compound, 1 nanomolar I125-LSD, autoradiography.
Data set [6] addresses T5, human mutated 5HT2A receptor, AP-3 (Homo sapiens, UniProt P28223, T25N, form not given).
T5 construct: rows headed: inverse agonist activity at the human 5HT2A receptor; other: summary statement; fused on or other part: Possibly intracellular loop 3 and cytoplasmic tail of human 5-HT2C (P28335), if the statement rests on AP-3
The data set can be described thus: Inositol phosphate accumulation assay, AP-3.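 Further: transfected 293 cells prelabeled with 3H-inositol, exposed to compound 120 min at 37 °C with LiCl and pargyline, inositol trisphosphates isolated by anion exchange and counted by scintillation.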 The class given is cell-based. The settings on record: summary statement.

Data set [7] deals with amphetamine-stimulated locomotion. Kind of data set: Amphetamine-stimulated locomotor activity. In kind it is in vivo, Sprague-Dawley rats. The note with it: rats, s.c. 0.1, 1.0, 5.0 mg/kg; with exception of the highest dose (10 mg/kg); d-amphetamine sulfate 1.0 mg/kg. An excerpt: A 5HT2A receptor antagonist or inverse agonist is expected to decrease amphetamine-stimulated locomotion without affecting baseline locomotion See, for example, Soresnon, et al, 266(2) J. Pharmacol. Exp. Ther. 684 (1993). […] For the following study, the following parameters and protocol were utilized:
Adult male Sprague-Dawley rats were utilized for these studies. Animals were housed in groups of 2-3 in hanging plastic cages with food and water available at all times. Animals were weighed and handled for at least one day prior to surgery and throughout the studies. For these studies, Vehicle consisted of 90% ethanol (100%) and 10% water.
A San Diego Instruments Flex Field apparatus was used to quantify baseline and amphetamine-stimulated locomotor activity. This apparatus consists of four 16″×16″ clear plastic open fields. Photocell arrays (16 in each dimension) interfaced with a personal computer to automatically quantify activity. Several measures of activity can be assessed with the apparatus, including total photocell beam breaks. Animals (vehicle control and Compound treated) were injected s.c. 30 minutes prior to initiation of analysis. Following this 30 minute period, animals were placed individually into an open field and baseline activity was assessed for 30 minutes (habituation phase). […]

In data set [8] the target is T6, constitutively active mutant human 5HT2C receptor AP-1 (Homo sapiens, UniProt P28335, S310K).
T6 construct: expressed in transfected cells; host or cells: COS7 cells, pCMV vector, transient
T6 sequence (P28335 33-458 S310K): T1 sequence (P28335 33-458 S310K)
Kind of data set: [35S]GTPγS binding assay with membranes of COS7 cells expressing AP-1. The class given is biochemical.

In data set [9] the target is T7, endogenous human 5-HT2C receptor (Homo sapiens, UniProt P28335).
T7 sequence (P28335 33-458): T1 sequence (P28335 33-458 S310K) with K278S

Setting [10] is: Inositol Phosphate Accumulation AP-3 IC50 Value (μM).
Where [11] appears, read: competitive binding using LSD, read-out: WT 5HT2A LSD IC50.
Setting [12] is: several concentrations, read-out: IP3 AP-3 IC50.
[13] abbreviates: 12.5 μg COS7 membranes expressing AP-1, 1 μM GDP, eight concentrations in triplicate, read-out: IC50 (nM) in GTP-γ-[35S] Assay.

T3 sequence (P28223 whole entry T25N, looked up): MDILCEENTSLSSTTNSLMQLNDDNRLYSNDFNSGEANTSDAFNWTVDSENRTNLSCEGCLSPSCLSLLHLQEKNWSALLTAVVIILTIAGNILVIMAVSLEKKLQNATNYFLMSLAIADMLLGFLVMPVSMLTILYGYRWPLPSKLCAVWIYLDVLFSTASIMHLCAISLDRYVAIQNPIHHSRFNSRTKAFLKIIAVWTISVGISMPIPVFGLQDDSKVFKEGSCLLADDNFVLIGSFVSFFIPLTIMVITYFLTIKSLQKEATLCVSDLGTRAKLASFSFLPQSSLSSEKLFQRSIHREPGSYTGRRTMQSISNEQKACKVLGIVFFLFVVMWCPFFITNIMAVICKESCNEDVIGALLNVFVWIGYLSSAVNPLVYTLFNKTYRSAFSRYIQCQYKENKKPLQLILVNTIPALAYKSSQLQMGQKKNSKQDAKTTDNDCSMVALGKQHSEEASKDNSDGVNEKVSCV
T2 sequence (P28223 whole entry T25N/H452Y): as the sequence (P28223 whole entry T25N, looked up) above, with H452Y counted along it
T4 sequence (P14842 whole entry): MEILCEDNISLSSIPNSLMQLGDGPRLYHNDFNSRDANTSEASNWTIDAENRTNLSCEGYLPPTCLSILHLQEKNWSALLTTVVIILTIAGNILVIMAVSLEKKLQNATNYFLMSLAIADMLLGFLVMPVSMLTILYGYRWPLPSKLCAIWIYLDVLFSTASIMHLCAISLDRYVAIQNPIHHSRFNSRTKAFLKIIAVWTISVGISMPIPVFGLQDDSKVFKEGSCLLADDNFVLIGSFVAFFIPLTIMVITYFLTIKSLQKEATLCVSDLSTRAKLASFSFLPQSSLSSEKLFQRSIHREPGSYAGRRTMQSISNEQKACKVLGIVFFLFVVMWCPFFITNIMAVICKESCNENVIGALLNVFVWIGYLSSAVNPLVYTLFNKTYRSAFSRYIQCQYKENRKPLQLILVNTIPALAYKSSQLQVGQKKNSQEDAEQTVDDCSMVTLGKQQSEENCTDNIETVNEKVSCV
T5 sequence (P28223 whole entry T25N, looked up, form open, the tested form may be a part): as the sequence (P28223 whole entry T25N, looked up) above

`COc1ccc(OC(=O)Nc2cccc(-c3nn(C)cc3Br)c2)cc1` [Compound 116100, N-[3-(4-bromo-1-methylpyrazol-3-yl)phenyl][4-methoxyphenoxy]carboxamide] registered a melting point of 140.3 to 141.8 °C. The IC50 in [1] is 1.8 µM. The same molecule displayed an IC50 in data set [2] of under 1 nM. This molecule also showed a concentration for half-maximal inhibition (IC50) in [3] (setting [10]) of 0.0003 µM. Also, the “displacement of I125-LSD from the cortex (5HT2A)” value in data set [4] is recorded as “selectively displace”. Moreover, in data set [5], the “displacement of I125-LSD from the caudate (dopamine D2)” value was “not the caudate”.

Consider `Cn1cc(Br)c(-c2cccc(NC(=O)c3ccc(OC(F)(F)F)cc3)c2)n1` [Compound 116101, N-[3-(4-bromo-1-methylpyrazol-3-yl)phenyl][4-trifluoromethoxyphenyl]carboxamide], for which the melting point fell in the range of 138.6 to 139.6 °C.

Molecule `Cn1cc(Br)c(-c2cccc(NC(=O)c3cccs3)c2)n1` [Compound 116102, N-[3-(4-bromo-1-methylpyrazol-3-yl)phenyl][2-thienyl]carboxamide] registered a melting point of 127.8 to 128.6 °C. For the same molecule, the IC50 in data set [1] was 2.8 µM. Moreover, the “inverse agonist activity at the human 5HT2A receptor” value in data set [6] is on record as “potent inverse agonist”. Besides, the “amphetamine-stimulated locomotion (photobeam breaks)” value in data set [7] is reported as “decrease”.

Turning to `Cn1cc(Br)c(-c2cccc(NC(=O)NCc3ccc(OC(F)(F)F)cc3)c2)n1` [Compound 116115], the melting point fell in the range of 144.6 to 145.8 °C. The same molecule showed an IC50 in [1] of 1.2 µM.

As to `Cn1cc(Br)c(-c2cccc(NC(=O)c3ccc(Cl)cc3)c2)n1` [Compound 116120, N-[3-(4-bromo-1-methylpyrazol-3-yl)phenyl][4-chlorophenyl]carboxamide], the melting point was in the range of 184.4 to 184.8 °C. In [1], this molecule gave an IC50 of 1.2 µM.

Take `COc1cccc(CC(=O)Nc2cccc(-c3nn(C)cc3Br)c2)c1` [Compound 116175, N-[3-(4-bromo-1-methylpyrazol-3-yl)phenyl]-2-(3-methoxyphenyl)acetamide]: the IC50 in data set [2] (setting [11]) came out at 625 nM; in [3] (setting [12]), 0.108 µM.

Regarding `Cn1cc(Br)c(-c2cccc(NC(=O)Cc3ccccc3F)c2)n1` [Compound 116176, N-[3-(4-bromo-1-methylpyrazol-3-yl)phenyl]-2-(2-fluorophenyl)acetamide], the values for the IC50 in [2] (setting [11]) and in data set [3] (setting [12]) were 662 nM and 0.129 µM, respectively.

As for `Cn1cc(Br)c(-c2cccc(NC(=O)Cc3ccc([N+](=O)[O-])cc3)c2)n1` [Compound 116177, N-[3-(4-bromo-1-methylpyrazol-3-yl)phenyl]-2-(4-nitrophenyl)acetamide], the IC50 in [2] (setting [11]) worked out at 108 nM; in data set [3] (setting [12]), 0.061 µM.

As for `COc1ccccc1CC(=O)Nc1cccc(-c2nn(C)cc2Br)c1` [Compound 116178, N-[3-(4-bromo-1-methylpyrazol-3-yl)phenyl]-2-(2-methoxyphenyl)acetamide], the IC50 in data set [2] (setting [11]) came to 2300 nM; in data set [3] (setting [12]), 0.165 µM.

As to `Cn1cc(Br)c(-c2cccc(NC(=O)NCc3ccc(F)cc3)c2)n1` [Compound 116182, N-[3-(4-bromo-1-methylpyrazol-3-yl)phenyl]-[{(4-fluorophenyl)methyl}amino]carboxamide], the IC50 in data set [2] (setting [11]) was determined as 132 nM; in [3] (setting [12]), 0.089 µM.

With `Cn1cc(Br)c(-c2cccc(NC(=O)OC(C)(C)C)c2)n1` [Compound 116192], the IC50 amounted to 14 nM in data set [2] and 0.057 µM in [3] (setting [10]).

Regarding `COc1ccc(CCNC(=O)Nc2cccc(-c3nn(C)cc3Br)c2)cc1` [Compound 116194, N-[3-(4-bromo-1-methylpyrazol-3-yl)phenyl][{2-(4-methoxyphenyl)ethyl}amino]carboxamide], the IC50 came out at 61 nM in data set [2] (setting [11]) and 0.032 µM in [3] (setting [12]).

On to `CSc1ccc2c(c1)C(N1CCN(C)CC1)Cc1ccccc1S2` (stereo not shown) [Methiothepin], for which, in data set [8] (setting [13]), the IC50 turned out to be 20.4 nM.

Turning to `CC[C@@H](CO)NC(=O)[C@@H]1C=C2c3cccc4c3c(cn4C)C[C@H]2N(C)C1` [Methysergide], in [8], the 50% inhibitory concentration (IC50) worked out at 6.1 nM.

For the molecule `Clc1ccc2c(c1)N=C(N1CCNCC1)c1ccccc1N2` [Normethylclozapin], in data set [8] (setting [13]), the IC50 turned out to be 21.4 nM.

As to `Cc1nc2sccn2c(=O)c1CCN1CCC(=C(c2ccc(F)cc2)c2ccc(F)cc2)CC1` [Ritanserin], the IC50 in data set [8] (read-out: IC50 (nM) in GTP-γ-[35S] Assay) was 19.4 nM.

Turning to `CN1CCN2c3ccccc3Cc3ccccc3C2C1` (stereo not shown) [mianserin], in data set [9], the “effect on basal constitutive binding of [35S]GTPγS” value is “partial inverse agonist”. Further, in [9] (30 μM), the “inhibition of serotonin-stimulated [35S]GTPγS binding” value is recorded as “completely inhibited”.

Turning to `O=C(CCCN1CCC2(CC1)C(=O)NCN2c1ccccc1)c1ccc(F)cc1` [spiperone, reference compound], in data set [4], the “displacement of I125-LSD from the cortex (5HT2A)” value is recorded as “displaces”. The “displacement of I125-LSD from the caudate (dopamine D2)” value in [5] is listed as “displaces”.
